Measured values reported in patent US8629242B2, “Methods of inhibiting calcineurin with ApoE analogs” (Cognosci, Inc., priority 2007, dated 2014).

Assays:
[1] = tested on: peritoneal macrophages; assay: In vitro LPS+IFN-γ challenge of macrophages from COG 133-treated EAE mice; type: cell-based; conditions: macrophages collected dpi 35 from treated mice, vs saline-treated mice, p<0.001
Experimental: FIG. 4. In vivo exposure to COG 133 suppressed in vitro production of inflammatory effectors by peritoneal macrophages. TNF-α (A) and IL-6 (B) were measured by ELISA, and nitrite in culture medium was measured by a Sievers NO Analyzer (C). Statistical analysis was performed by two-tailed student's t test and significance was shown as ** (p<0.01) and *** (p<0.001).
To examine the effect of COG 133 (SEQ ID NO: 1) treatment on activation of macrophages in EAE mice, macrophages were collected from a subset of saline and COG 133-treated mice on dpi 35 and then challenged in vitro with the immune stimulators lipopolysaccharide and interferon-γ (LPS+IFN-γ). Nitrite in culture medium was measured by a Sievers NO Analyzer and TNF-α and IL-6 were measured by ELISA.

[2] = tested on: NFAT translocation in BV2 cells; assay: LPS-induced NFAT translocation in BV2 cells; type: cell-based, murine; conditions: 2 μM, LPS 10 ng/mL, 15 min
From the text: FIG. 15. ApoE analog inhibits LPS-induced NFAT translocation. Murine microglial cell line, BV2 cells were stimulated with LPS in the presence or absence of COG 112. NFAT (green signal) and nuclear label (red signal). (A) Untreated cultures; (B) LPS-treated cultures; (C) LPS+COG 112-treated cultures; (D) NFAT translocation was quantified by the fluorescence intensity of green fluorescence in the nucleus defined by yellow area.
Calcineurin dephosphorylates the transcription factor NFAT, which leads to its activation and translocation to the nucleus. Activation of calcineurin and subsequent activation of NFAT is induced by inflammatory stimuli. To further examine the effect of ApoE analogs on calcineurin signaling, murine microglial cell line, BV2 cells were stimulated with LPS (10 ng/mL) in the absence and presence of COG 112 (2 μM). After incubation for 15 min at 37° C., the cells were washed and fixed with 4% formaldehyde. After staining with 1/100 anti-NFAT antibody coupled with Alexaflour and then counterstained with hoescht nuclear dye, NFAT translocation was quantified by the fluorescence intensity of Alexaflour in the nucleus.

[3] = tested on: cuprizone-induced demyelination in corpus callosum; assay: Cuprizone-induced demyelination model; type: in vivo, C57BL/6J male mice
Experimental: FIG. 6. COG 112 promotes remyelination of the corpus callosum in a cuprizone model of demyelination. C57BL/6J male mice were fed with 0.2% cuprizone-containing diet for 5 weeks to induce complete demyelination in the corpus callosum. Starting from week 6, cuprizone was removed and the animals were treated with either vehicle or COG 112 (1 mg/kg) by i.p. injection three times a week for 4 weeks. Myelination in corpus callosum was evaluated on a scale from 0 to 3 after staining brain sections with Luxol Fast Blue (LFB). The data were collected from 4 animals of each group and 2 sections from each animal. A non-parametric Mann-Whitney test was used to compare differences between groups. Panels A and B (100×) are representative pictures of LFB-stained sections from vehicle- and COG 112-treated animals, respectively. Panels C and D (400×) are representative sections labeled with anti-GST-π-FITC antibody (marker for mature oligodendrocytes) from vehicle- and COG 112-treated animals, respectively.
In an EAE model, treatment with COG 112 reduced demyelination in the spinal cord (Example 1). Therefore, we tested the effect of COG peptides on remyelination in a cuprizone-induced demyelination model. C57BL/6J male mice were fed with 0.2% cuprizone-containing mouse chow for 5 weeks to cause demyelination. […]

Molecule | release of IL-6 [1] | release of NO [1] | release of TNF-α [1] | NFAT translocation to the nucleus [2] | LFB staining of myelin within corpus callosum ([3]; 1 mg/kg i.p. three times a week for 4 weeks after 5 weeks cuprizone) | GST-π+ cells (mature oligodendrocytes) within the corpus callosum ([3]; 1 mg/kg i.p. three times a week for 4 weeks, vs vehicle)
CC(=O)N[C@@H](CC(C)C)C(=O)N[C@@H](CCCNC(=N)N)C(=O)N[C@H](C(=O)N[C@@H](CCCNC(=N)N)C(=O)N[C@@H](CC(C)C)C(=O)N[C@@H](C)C(=O)N[C@@H](CO)C(=O)N[C@@H](Cc1c[nH]cn1)C(=O)N[C@@H](CC(C)C)C(=O)N[C@@H](CCCNC(=N)N)C(=O)N[C@@H](CCCCN)C(=O)N[C@@H](CC(C)C)C(=O)N[C@@H](CCCNC(=N)N)C(=O)N[C@@H](CCCCN)C(=O)N[C@@H](CCCNC(=N)N)C(=O)N[C@@H](CC(C)C)C(=O)N[C@@H](CC(C)C)C(N)=O)C(C)C [COG 133] | significantly lower response | significantly lower levels of NO | significantly lower response | – | – | –
Ac-RQIKIWFQNRRMKWKKCLRVRLASHLRKLRKRLL-NH2 [COG 112] | – | – | – | prevented NFAT translocation | significantly increased | Significantly more
